Several values for one entry are separate records, joined by “and”; a condition that tells them apart may be missing. Equal entries are not always repeated. Numbers after ± are expanded uncertainties.
Settings: for surface tension liquid-gas: Drop volume; for viscosity / speed of sound / mass density: Liquid; for viscosity: Capillary tube (Ostwald / Ubbelohde) method; for speed of sound: Frequency=3 MHz, Single path-length method; for mass density: Vibrating tube method

OCc1cccs1 [2-thiophenemethanol]
Settings	surface tension liquid-gas [mN/m]
283.15 K	45.2 ± 0.3
285.65 K	44.93 ± 0.3
288.15 K	44.61 ± 0.3
290.65 K	44.39 ± 0.3
293.15 K	44.13 ± 0.3
295.65 K	43.83 ± 0.3
298.15 K	43.56 ± 0.3

Settings	mass density	speed of sound [m/s]	viscosity [mPa·s]
283.15 K, 100 kPa	1215.5 ± 0.54 kg/m3	1545.7 ± 0.78	13.16 ± 0.15
283.15 K, 2000 kPa	1216.47 ± 0.54 kg/m3	–	–
283.15 K, 5000 kPa	1217.99 ± 0.55 kg/m3	–	–
283.15 K, 7000 kPa	1218.98 ± 0.56 kg/m3	–	–
283.15 K, 10000 kPa	1220.46 ± 0.57 kg/m3	–	–
283.15 K, 15000 kPa	1222.87 ± 0.59 kg/m3	–	–
283.15 K, 20000 kPa	1225.22 ± 0.62 kg/m3	–	–
283.15 K, 25000 kPa	1227.52 ± 0.64 kg/m3	–	–
283.15 K, 30000 kPa	1229.77 ± 0.67 kg/m3	–	–
283.15 K, 35000 kPa	1231.96 ± 0.7 kg/m3	–	–
283.15 K, 40000 kPa	1234.11 ± 0.74 kg/m3	–	–
283.15 K, 45000 kPa	1236.21 ± 0.77 kg/m3	–	–
283.15 K, 50000 kPa	1238.27 ± 0.81 kg/m3	–	–
283.15 K, 55000 kPa	1240.29 ± 0.84 kg/m3	–	–
283.15 K, 60000 kPa	1242.27 ± 0.88 kg/m3	–	–
283.15 K, 65000 kPa	1244.21 ± 0.92 kg/m3	–	–
285.65 K, 100 kPa	1213.3 ± 0.54 kg/m3	1538.2 ± 0.78	11.81 ± 0.13
288.15 K, 100 kPa	1211.11 ± 0.54 kg/m3 and 1211.08 ± 0.54 kg/m3	1530.8 ± 0.78	10.6 ± 0.12
288.15 K, 2000 kPa	1212.1 ± 0.54 kg/m3	–	–
288.15 K, 5000 kPa	1213.64 ± 0.55 kg/m3	–	–
288.15 K, 7000 kPa	1214.66 ± 0.56 kg/m3	–	–
288.15 K, 10000 kPa	1216.16 ± 0.57 kg/m3	–	–
288.15 K, 15000 kPa	1218.62 ± 0.59 kg/m3	–	–
288.15 K, 20000 kPa	1221.01 ± 0.62 kg/m3	–	–
288.15 K, 25000 kPa	1223.35 ± 0.64 kg/m3	–	–
288.15 K, 30000 kPa	1225.64 ± 0.67 kg/m3	–	–
288.15 K, 35000 kPa	1227.87 ± 0.7 kg/m3	–	–
288.15 K, 40000 kPa	1230.06 ± 0.73 kg/m3	–	–
288.15 K, 45000 kPa	1232.19 ± 0.76 kg/m3	–	–
288.15 K, 50000 kPa	1234.29 ± 0.8 kg/m3	–	–
288.15 K, 55000 kPa	1236.34 ± 0.84 kg/m3	–	–
288.15 K, 60000 kPa	1238.35 ± 0.87 kg/m3	–	–
288.15 K, 65000 kPa	1240.32 ± 0.91 kg/m3	–	–
290.65 K, 100 kPa	1208.87 ± 0.54 kg/m3	1523.4 ± 0.78	9.578 ± 0.11
293.15 K, 100 kPa	1206.69 ± 0.54 kg/m3 and 1206.66 ± 0.54 kg/m3	1516 ± 0.78	8.703 ± 0.099
293.15 K, 2000 kPa	1207.7 ± 0.54 kg/m3	–	–
293.15 K, 5000 kPa	1209.28 ± 0.55 kg/m3	–	–
293.15 K, 7000 kPa	1210.32 ± 0.56 kg/m3	–	–
293.15 K, 10000 kPa	1211.85 ± 0.57 kg/m3	–	–
293.15 K, 15000 kPa	1214.36 ± 0.59 kg/m3	–	–
293.15 K, 20000 kPa	1216.8 ± 0.61 kg/m3	–	–
293.15 K, 25000 kPa	1219.18 ± 0.64 kg/m3	–	–
293.15 K, 30000 kPa	1221.5 ± 0.66 kg/m3	–	–
293.15 K, 35000 kPa	1223.78 ± 0.69 kg/m3	–	–
293.15 K, 40000 kPa	1226 ± 0.72 kg/m3	–	–
293.15 K, 45000 kPa	1228.17 ± 0.76 kg/m3	–	–
293.15 K, 50000 kPa	1230.29 ± 0.79 kg/m3	–	–
293.15 K, 55000 kPa	1232.38 ± 0.83 kg/m3	–	–
293.15 K, 60000 kPa	1234.42 ± 0.87 kg/m3	–	–
293.15 K, 65000 kPa	1236.41 ± 0.9 kg/m3	–	–
295.65 K, 100 kPa	1204.45 ± 0.54 kg/m3	1508.6 ± 0.78	7.913 ± 0.09
298.15 K, 100 kPa	1202.27 ± 0.54 kg/m3 and 1202.23 ± 0.54 kg/m3	1501.2 ± 0.78	7.23 ± 0.082
298.15 K, 2000 kPa	1203.3 ± 0.54 kg/m3	–	–
298.15 K, 5000 kPa	1204.91 ± 0.55 kg/m3	–	–
298.15 K, 7000 kPa	1205.97 ± 0.56 kg/m3	–	–
298.15 K, 10000 kPa	1207.53 ± 0.57 kg/m3	–	–
